From article PMC11500008, “Novel quinazolin-4-one based derivatives bearing 1,2,3-triazole and glycoside moieties as potential cytotoxic agents through dual EGFR and VEGFR-2 inhibitory activity” (Scientific Reports, 2024)
“And” between values parts separate entries of the source, which are not always exact repeats. Identical values can stand only once. Like-named read-outs stand apart in the source and are kept apart here.

Key:
[1] = target: VEGFR-2 (Homo sapiens, UniProt P35968); assay: In vitro VEGFR-2 inhibition assay (ELISA); conditions: read-out: IC50 (mean ± SD) VEGFR-2; average of three values
[2] = test system: BJ-1 normal cell line; assay: MTT cytotoxicity assay, normal BJ-1 fibroblasts (safety profile); type: cell-based; conditions: Homo sapiens; BJ-1 normal fibroblast-derived cells; 48 h incubation; mean of three values; read-out: IC50 (mean±SD) BJ-1
Experimental: […]. The safety profiles of all derivatives were assessed through cytotoxic evaluation using human fibroblast-derived BJ-1 normal cell lines. […].
(§1) The recently incorporated quinazolinone-based targets 1–4, 6–13 underwent evaluation for their cytotoxic effects with in vitro employing MTT technique, according to the procedure that has been published[48]–[50], utilizing human fibroblast-derived BJ-1 normal cell line, and human cancer liver HepG-2, breast MCF-7, and colon HCT-116 cell lines. These cell lines were purchased from Karolinska Center, Department of Oncology and Pathology, Karolinska Institute and Hospital, Stockholm, Sweden, There were further details in the supplemental file.
(§2) The cell lines were obtained from Karolinska Center, Department of Oncology and Pathology, Karolinska Institute and Hospital, Stockholm, Sweden as follows: human liver HepG-2, breast MCF-7, and colorectal HCT-116 cancer cell lines and human fibroblast-derived BJ-1 normal cell line. Exponentially, cells were placed in 10^4 cells/ well for 24 h, and then add fresh medium which containing different concentration of the tested sample. Serial two-fold dilution of the tested sample were added using a multichannel pipette. Moreover, all cells were cultivated at 37 °C, 5% CO2 and 95% humidity. Also, incubation of control cells occurred at 37 °C. However, after incubation for 24 h different concentrations of sample (25, 12.5, 6.25 and 3.125 µM) were added and continued the incubation for 48 h, then, add the crystal violet solution 1% to each well for 0.5 h to examine viable cells. Rinse the wells using water until no stain. After that, add 30% glacial acetic acid to all wells with shaking plates on Microplate reader (TECAN, Inc.) to measure the absorbance, using a test wavelength of 490 nm. Besides, compare the treated samples with the control cell. The cytotoxicity was estimated by IC50 in (μM), the concentration that inhibits 50% of growth of cancer cell.

[3] = test system: MCF-7 cell line; assay: MTT cytotoxicity assay, MCF-7; type: cell-based; conditions: Homo sapiens, MCF7; MCF-7 breast cancer cells; 48 h incubation; mean of three values; read-out: IC50 (mean±SD) MCF-7
From the text: as §1, §2

[4] = test system: HCT-116 cell line; assay: MTT cytotoxicity assay, HCT-116; type: cell-based; conditions: Homo sapiens; HCT-116 colorectal cancer cells; 48 h incubation; mean of three values; read-out: IC50 (mean±SD) HCT-116
From the text: as §1, §2

[5] = test system: HepG-2 cell line; assay: MTT cytotoxicity assay, HepG-2; type: cell-based; conditions: Homo sapiens, HepG2; HepG-2 liver cancer cells; 48 h incubation; mean of three values; read-out: IC50 (mean±SD) HepG-2
From the text: as §1, §2

[6] = target: EGFR (Homo sapiens, UniProt P00533); assay: In vitro EGFR inhibition assay (Kinase-Glo luminescence)
[7] = test system: Bax; assay: Bax level in HCT-116 cells; type: cell-based, human
From the text: (§3) The methods previously described for the appealing quinazolinone-1,2,3-triazole glycoside 13 was used to clearly show the levels of p53, Bax, Bcl-2, and in HCT-116 cells.
(§4) The levels of the apoptotic marker Bax and anti-apoptotic marker Bcl-2 were estimated using BIO RAD iScript TM One-Step RT-PCR kit with SYBR® Green. The procedure of the used kit was done according to the manufacturer’s instructions.

[8] = test system: HCT-116 cells; assay: Apoptosis analysis by annexin V-FITC/PI flow cytometry; type: cell-based, human; conditions: 5.40 µM, 24 h
Experimental: (§5) The most powerful cytotoxic derivative, quinazolinone-1,2,3-triazole glycoside 13, underwent 24-hour treatment at a dose of 5.40 µM to find out if it caused cell death by the apoptotic pathway in HCT-116 cells. Using annexin-V labeling, flow cytometry was employed to further analyze the cells (Figs. 4, 5 and 6).
(§6) The examination of apoptosis and the interpretation of the cell cycle were described[37] utilizing flow cytometry. HCT-116 cells were treated with quinacolinone-1,2,3-triazole glycoside 13 for a full day, and after that, the cells were cultured at 37 °C. There were more details added to supporting documentation .
(§7) Cell cycle analysis and apoptosis study were carried out using flow cytometry. HCT-116 cells were seeded at 8×10^4 and incubated at 37°C in 5% CO2 overnight. After treatment with the tested compound 10 for 24 h, cell pellets were collected and centrifuged (300 g, 5 min). For cell cycle analysis cell pellets were fixed with 70% ethanol on ice for 15 min and collected again. The pellets were incubated with propidium iodide (PI) staining solution at room temperature for 1 h and analyzed by a Gallios flow cytometer (Beckman Coulter, Brea, CA, USA). Apoptosis detection was carried out by FITC AnnexinV/PI commercial kit (Becton Dickenson, Franklin Lakes, NJ, USA) following the manufacturer protocol. The samples were analyzed by fluorescence-activated cell sorting (FACS) with a Gallios flow cytometer (Beckman Coulter, Brea, CA, USA) within 1 h after staining. Data were analyzed using Kaluza v 1.2 (Beckman Coulter).

[9] = test system: HCT-116 cells; assay: Cell cycle analysis by flow cytometry (PI); type: cell-based, human
Experimental: as §5, §6, §7

[10] = test system: Bcl-2; assay: Bcl-2 level in HCT-116 cells; type: cell-based, human
From the text: as §3, §4

[11] = test system: p53; assay: p53 level in HCT-116 cells (ELISA); type: cell-based, human
Experimental: as §3
Human p53 present in HCT-116 cells was determined; using Human p53 ELISA-Kit (CS0070 Sigma) read using spectrophotometer at 450 nm against untreated control cells (negative control) applying the standard protocols of the manufacturers. The samples or standard having human p53 bind to antibodies adsorbed to the microwells. Addition of biotin-conjugated was followed by incubation and addition of dispense of unbound biotin-conjugated streptavidin HRP. Then, the reaction was terminated by adding acid, and the absorbance was measured at 450 nm.

[12] = test system: MCF-7 cell line; parameters: method as in PMID 37453330; conditions: cellular activity; read-out: IC50 against MCF-7 cell line; cited from earlier work

Chain of EGFR (P00533 25-1210): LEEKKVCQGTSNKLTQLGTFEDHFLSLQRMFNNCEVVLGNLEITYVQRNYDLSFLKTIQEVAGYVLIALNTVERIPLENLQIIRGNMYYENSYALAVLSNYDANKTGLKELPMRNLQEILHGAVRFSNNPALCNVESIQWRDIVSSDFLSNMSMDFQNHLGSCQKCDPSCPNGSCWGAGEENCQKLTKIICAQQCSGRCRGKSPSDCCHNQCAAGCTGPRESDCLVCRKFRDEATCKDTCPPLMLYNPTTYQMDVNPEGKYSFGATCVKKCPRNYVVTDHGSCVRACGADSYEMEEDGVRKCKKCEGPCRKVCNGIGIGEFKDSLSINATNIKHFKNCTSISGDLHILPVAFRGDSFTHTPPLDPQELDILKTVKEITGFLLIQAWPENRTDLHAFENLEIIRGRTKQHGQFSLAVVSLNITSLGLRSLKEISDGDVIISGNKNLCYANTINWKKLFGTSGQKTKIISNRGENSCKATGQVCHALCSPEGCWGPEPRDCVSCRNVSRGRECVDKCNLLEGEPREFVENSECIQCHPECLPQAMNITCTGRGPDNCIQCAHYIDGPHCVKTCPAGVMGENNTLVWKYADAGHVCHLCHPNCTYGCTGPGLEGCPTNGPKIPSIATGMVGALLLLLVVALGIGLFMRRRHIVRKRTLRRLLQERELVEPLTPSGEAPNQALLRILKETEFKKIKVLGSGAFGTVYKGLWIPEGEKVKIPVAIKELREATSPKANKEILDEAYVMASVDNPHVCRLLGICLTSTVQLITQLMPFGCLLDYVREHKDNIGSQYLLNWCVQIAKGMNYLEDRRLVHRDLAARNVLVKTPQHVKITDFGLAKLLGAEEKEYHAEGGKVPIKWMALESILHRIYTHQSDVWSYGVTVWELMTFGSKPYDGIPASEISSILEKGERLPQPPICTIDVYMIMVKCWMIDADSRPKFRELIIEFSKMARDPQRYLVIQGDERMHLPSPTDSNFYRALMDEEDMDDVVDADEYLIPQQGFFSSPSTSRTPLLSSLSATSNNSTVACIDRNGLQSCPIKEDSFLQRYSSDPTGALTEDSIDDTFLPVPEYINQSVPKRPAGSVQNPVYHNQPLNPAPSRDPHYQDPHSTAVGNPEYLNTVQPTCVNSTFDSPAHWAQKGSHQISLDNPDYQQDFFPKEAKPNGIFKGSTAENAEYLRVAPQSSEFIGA
Chain of VEGFR-2 (P35968 20-1356): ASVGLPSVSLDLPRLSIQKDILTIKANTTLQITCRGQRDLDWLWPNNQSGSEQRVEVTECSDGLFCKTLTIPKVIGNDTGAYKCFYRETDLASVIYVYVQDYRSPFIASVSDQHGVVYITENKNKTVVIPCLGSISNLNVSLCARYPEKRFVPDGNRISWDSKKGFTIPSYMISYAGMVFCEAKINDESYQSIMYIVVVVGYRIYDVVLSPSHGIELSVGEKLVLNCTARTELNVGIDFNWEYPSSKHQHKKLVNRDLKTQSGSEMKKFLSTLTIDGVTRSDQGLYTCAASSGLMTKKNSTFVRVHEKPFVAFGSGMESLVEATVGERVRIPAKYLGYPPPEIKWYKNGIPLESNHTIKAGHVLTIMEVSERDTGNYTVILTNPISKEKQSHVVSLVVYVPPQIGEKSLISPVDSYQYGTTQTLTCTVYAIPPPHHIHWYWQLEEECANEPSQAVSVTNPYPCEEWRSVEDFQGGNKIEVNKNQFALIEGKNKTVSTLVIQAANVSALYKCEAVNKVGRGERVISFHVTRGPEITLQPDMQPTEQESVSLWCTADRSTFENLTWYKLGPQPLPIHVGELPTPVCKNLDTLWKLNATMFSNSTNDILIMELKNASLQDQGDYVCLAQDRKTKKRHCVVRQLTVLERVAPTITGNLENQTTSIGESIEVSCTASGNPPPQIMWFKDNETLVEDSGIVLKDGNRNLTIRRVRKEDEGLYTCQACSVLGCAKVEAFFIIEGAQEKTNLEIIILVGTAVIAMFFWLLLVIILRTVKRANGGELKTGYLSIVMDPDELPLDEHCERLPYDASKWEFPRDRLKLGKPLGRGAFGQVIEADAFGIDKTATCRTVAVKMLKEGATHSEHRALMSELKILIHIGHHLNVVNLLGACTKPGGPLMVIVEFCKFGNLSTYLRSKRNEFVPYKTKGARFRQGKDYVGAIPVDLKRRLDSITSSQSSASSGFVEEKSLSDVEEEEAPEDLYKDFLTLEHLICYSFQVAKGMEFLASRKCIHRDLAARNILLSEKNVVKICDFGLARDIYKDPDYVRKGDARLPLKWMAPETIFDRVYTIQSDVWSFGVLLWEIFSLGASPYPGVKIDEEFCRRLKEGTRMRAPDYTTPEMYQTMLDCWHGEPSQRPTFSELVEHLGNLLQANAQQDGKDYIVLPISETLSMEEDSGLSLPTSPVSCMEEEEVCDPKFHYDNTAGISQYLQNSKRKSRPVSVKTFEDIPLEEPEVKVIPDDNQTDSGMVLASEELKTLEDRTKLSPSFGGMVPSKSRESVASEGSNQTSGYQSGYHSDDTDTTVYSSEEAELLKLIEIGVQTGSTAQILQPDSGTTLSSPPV

## CC(=O)O[C@@H]1[C@@H](OC(C)=O)[C@H](OC(C)=O)CO[C@H]1n1cc(CSc2nc3ccccc3c(=O)n2C)nn1 [Compound 9, 2-(((1-[2,3,4-tri-O-acetyl-β-D-xylopyranosyl]-1 H-1,2,3-triazol-4-yl)methyl)thio)-3-methylquinazolin-4(3 H)-one]
[1]
  IC50: 30.6 ± 0.32 µM
[2]
  IC50: > 25 µM
[3]
  IC50: 12.6 ± 1.3 µM
[4]
  IC50: 3.2 ± 0.2 µM
other
  melting point: 146 to 148 °C
[5]
  IC50: 22.9 ± 2.3 µM
[6]
  IC50: 23.05 ± 0.08 µM

## Cn1c(SCc2cn([C@@H]3OC[C@@H](O)[C@H](O)[C@H]3O)nn2)nc2ccccc2c1=O [Compound 13, 2-(((1-[β-D-Xylopyranosyl]-1 H-1,2,3-triazol-4-yl)methyl)thio)-3-methylquinazolin-4(3 H)-one]
[1]
  IC50: 3.2 ± 0.15 µM
[2]
  IC50: 23.5 ± 2.3 µM
[7]; 24-hour treatment at 5.40 µM, control 4.53
  Bax/Bcl-2: 72.83
[7]; 24-hour treatment at IC50 5.40 µM, control 33.85
  Bax: 229.40 pg/mL and 229.40 ± 1.62 pg/mL
[7]; 24 h, 5.40 µM
  improvement in Bax values versus untreated control: 6.8 fold
[3]
  IC50: 7.9 ± 0.3 µM
[4]
  IC50: 5.4 µM
[8]; DMSO control 0.14
  Apoptosis Late: 25.36%
[8]; DMSO control 0.55
  Apoptosis Early: 7.42%
[8]; DMSO control 1.35
  Necrosis: 3.53%
[9]
  stage of cell cycle arrest: G1 stage
[9]; 5.40 µM, 24-hour treatment (Table S2 title: 48 h), control 13.24
  %G2/M: 9.43%
[9]; 5.40 µM, 24-hour treatment (Table S2 title: 48 h), control 32.81
  %S: 22.46%
[9]; 5.40 µM, 24-hour treatment (Table S2 title: 48 h), control 53.95
  %G0-G1: 68.11%
[10]; 24-hour treatment at IC50 5.40 µM, control 7.48
  Bcl-2: 3.15 ng/mL and 3.15 ± 0.22 ng/mL
[10]; 24 h, 5.40 µM
  reduction of Bcl-2 protein levels versus control: ~2.4 times
[5]
  IC50: 18.2 ± 2.2 µM
[6]
  IC50: 0.31 ± 0.06 µM
[11]; 24-hour treatment at IC50 5.40 µM, control 139.65
  P53: 885.72 pg/mL and 885.72 ± 1.49 pg/mL
[11]; 24 h, 5.40 µM
  enhancement of p53 protein levels versus control: 6.3 times

## COc1ccc(Cc2nnc(COc3ncnc4ccccc34)o2)cc1OC [IV]
[12]
  IC50: 0.23 µM
